Source: ChEMBL document CHEMBL2062361, “Synthesis and antiproliferative evaluation of some new amidino-substituted bis-benzothiazolyl-pyridines and pyrazine” (Eur J Med Chem, 2012)

Tests used:
BJ = assay: Antiproliferative activity against human BJ cells after 72 hrs by MTT assay; assay type: cell-based
MCF7 = assay: Antiproliferative activity against human MCF7 cells after 72 hrs by MTT assay; assay type: functional, cell-based; conditions: MCF7, 72 h
SW-620 = assay: Antiproliferative activity against human SW620 cells after 72 hrs by MTT assay; assay type: functional, cell-based; conditions: SW-620, 72 h
HeLa = assay: Antiproliferative activity against human HeLa cells after 72 hrs by MTT assay; assay type: functional, cell-based
SK-BR-3 = assay: Antiproliferative activity against human SK-BR-3 cells after 72 hrs by MTT assay; assay type: functional, cell-based; conditions: SK-BR-3, 72 h
MIA PaCa-2 = assay: Antiproliferative activity against human MIAPaCa2 cells after 72 hrs by MTT assay; assay type: functional, cell-based; conditions: MIA PaCa-2, 72 h

Row | Compound | IC50 (MCF7) [µM] | IC50 (SW-620) [µM] | IC50 (HeLa) [µM] | IC50 (SK-BR-3) [µM] | IC50 (MIA PaCa-2) [µM] | IC50 (BJ) [µM]
1 | c1cc2nc(-c3cncc(-c4nc5ccc(C6=NCCN6)cc5s4)c3)sc2cc1C1=NCCN1 | 0.9 | 0.42 | 0.3 | 0.5 | 6.6 | 0.16
2 | N=C(N)c1ccc2nc(-c3ccnc(-c4nc5ccc(C(=N)N)cc5s4)c3)sc2c1 | 78.9 | > 100 | > 100 | > 100 | 61.1 | 2.92

Continued, in another order:

Row | IC50 (MCF7) [µM] | IC50 (SW-620) [µM] | IC50 (HeLa) [µM] | IC50 (SK-BR-3) [µM] | IC50 (MIA PaCa-2) [µM] | Compound | IC50 (BJ) [µM]
3 | > 100 | > 100 | > 100 | > 100 | 86.7 | N=C(N)c1ccc2nc(-c3cncc(-c4nc5ccc(C(=N)N)cc5s4)c3)sc2c1 | 15
4 | 4.4 | 2.8 | 3.4 | 3.4 | 4.4 | c1cc2nc(-c3ccc(-c4nc5ccc(C6=NCCN6)cc5s4)nc3)sc2cc1C1=NCCN1 | 0.34
5 | 1.2 | 1.8 | 1.9 | 0.9 | 5.1 | c1cc2nc(-c3cnc(-c4nc5ccc(C6=NCCN6)cc5s4)cn3)sc2cc1C1=NCCN1 | 0.07
